Measurements published in patent publication US20230363389A1, “MAMMAL REPELLENT” (SCENT SCIENCE INTERNATIONAL INC., priority 2020, published 2023).

Columns and labels:
mice = details: reported, Non-Patent Literature 5; cited from earlier work
birds = details: reported, Non-Patent Literature 5; cited from earlier work
C57/BL6 male mice = assay: Freezing test: innate fear (freezing) behavior of mice exposed to odor gas; type: in vivo, mouse; details: for freezing behavior-inducing activity (Freezing time): 10 ppm gas, 20 min observation, n = 6
Text: A 10 ppm gas was generated for 9 kinds of available odor molecules from those reported to have a repellent effect on birds by using a gas permeator (manufactured by GASTEC, PD-1B-2). Holes (4.5 cm and 12 cm high) were respectively drilled on opposite sides of a sealed test cage (17×17×18.5 cm), a tube for discharging the gas generated by the permeator was connected to the lower hole, the gas was introduced, and the higher hole allowed the air in the test cage to be released. After the air in the test cage was completely replaced by the odor gas, C57/BL6 male mice aged about 2 months to 6 months were put into the test cage (one mouse per cage), and the freezing behavior was analyzed by a freezing behavior automatic analyzer (manufactured by Actimetrics, Freeze Frame2) for 20 min. The time during which the mouse was motionless for 2 seconds or longer was measured as a freezing behavior, and the duration of freezing behavior within 20 minutes of observation time (Freezing time) was shown in %. Each experiment was performed with n = 6.
A constant concentration of the gas of the following various compounds was generated by a gas permeator (manufactured by GASTEC, PD-1B-2). When the concentration is not particularly indicated, an odor gas was generated at a concentration of 10 ppm. Holes (4.5 cm and 12 cm high) were respectively drilled on opposite sides of a sealed test cage (17×17×18.5 cm), a tube for discharging the gas generated by the permeator was connected to the lower hole, the gas was introduced, and the higher hole allowed the air in the test cage to be released. After the air in the test cage was completely replaced by the odor gas, C57/BL6 male mice aged about 2 months to 6 months were put into the test cage (one mouse per cage), and the freezing behavior was analyzed by a freezing behavior automatic analyzer (manufactured by Actimetrics, Freeze Frame2) for 20 min. The time during which the mouse was motionless for 2 seconds or longer was measured as a freezing behavior, and the duration of freezing behavior within 20 minutes of observation time (Freezing time) was shown in %. Each experiment was performed with n = 6. […]
A 10 ppm gas of thiophene and 2-acetylthiophene was generated using a gas permeator (manufactured by GASTEC, PD-1B-2). […] After the air in the test cage was completely replaced by the odor gas, C57/BL6 male mice aged about 2 months to 6 months were put into the test cage (one mouse per cage), and the freezing behavior was analyzed by a freezing behavior automatic analyzer (manufactured by Actimetrics, Freeze Frame2) for 20 min. The time during which the mouse was motionless for 2 seconds or longer was measured as a freezing behavior, and the duration of freezing behavior within 20 minutes of observation time (Freezing time) was shown in %. […]

SMILES	activity to induce freezing behavior in mice (mice)	repellent activity in birds (birds)	freezing behavior-inducing activity (Freezing time) (C57/BL6 male mice; Example 1, FIG. 1)	freezing behavior-inducing activity (Freezing time) (C57/BL6 male mice; Example 3, FIG. 3)	significant difference from no odor, student's t-test (C57/BL6 male mice; Example 3, freezing time versus no odor)
Cc1csc(C)n1 [2,4-dimethyl-thiazole]	has an activity to induce freezing behavior	does not show repellent activity			
CC(=O)c1cccs1 [2-acetylthiophene]			induced a freezing behavior	very strong freezing behavior	
c1ccsc1 [thiophene]				very low	no significant difference
